Laboratory results reported in patent US6399659B2, “Hydrazine oxoacetamide derivative and insecticide” (Agro-Kanesho Co., Ltd., priority 1998, dated 2002).

How the values were obtained:
Assay type in all cases: in vivo
[1] = Peroral acute toxicity for mouse; conditions: 300 mg/kg peroral, male ICR mice, 7 days observation
Experimental: Each of the present compounds was suspended in a 0.5% aqueous carboxymethylcellulose solution to obtain a suspension of a predetermined concentration. Male SIc:ICR mice (SPF) of 6 weeks old (body weight: 29.5 to 34.4 g) were fasted for 3 hours. 1 ml, per 100 g of the body weight, of the suspension was forcibly fed into the stomach of each mouse. Then, a food and water were given to the mice and they were bred in a cage. The observation period after the administration was 7 days. During that period, the life and death, general conditions and change in body weight of the mice were observed. Thereafter, pathologico-anatomic experiments were carried out (two mice in each group).

Spodoptera litura = experiment: Effect on Spodoptera litura, sprayed Chinese cabbage leaves, death rate; conditions: third-instar larvae, 48 hours
Experimental: An emulsion was prepared from each of the present compounds listed below, in the same manner as that of Preparation Example 2. The obtained emulsion was diluted with water so that the concentration of the present compound would be 50 ppm, 5 ppm or 0.5 ppm to obtain diluted aqueous emulsions.
The diluted aqueous emulsions were sprayed on leaves of Chinese cabbages of a 3-4 leave stage. After drying with air, the leaves were placed in a plastic vessel having a size of 21 cm×13 cm×3 cm (depth). Ten third-instar larvae of Spodoptera litura were released in the vessel. The vessel was closed and placed in a room kept at a constant temperature of 26. 48 hours after, the numbers of surviving and dead ones were counted, and the death rate was calculated.

Plutella xylostella = experiment: Effect on Plutella xylostella, sprayed Chinese cabbage leaves, death rate; conditions: third-instar larvae, 48 hours
Experimental: Emulsions of varied concentrations prepared in the same manner as that of the above Biological Test Example 1 were sprayed on leaves of Chinese cabbages of a 3-4 leave stage. After drying with air, the leaves were placed in a plastic vessel having a size of 9 cm (inside diameter)×6.5 cm (depth). Ten third-instar larvae of Plutella xylostella were released in the vessel. The vessel was closed and placed in a room kept at a constant temperature of 26. 48 hours after, the numbers of surviving and dead ones were counted, and the death rate was calculated. The results are shown in following Table 7 together with those obtained with comparative compounds.

Mamestra brassicae = experiment: Effect on Mamestra brassicae, insecticidal activity as in Biological Test Example 1

Compound	life and death, general conditions [1]	death rate (Spodoptera litura; 0.5 ppm)	death rate (Spodoptera litura; 5 ppm)	death rate (Spodoptera litura; 50 ppm)	death rate (Plutella xylostella; 0.5 ppm)	death rate (Plutella xylostella; 5 ppm)	death rate (Plutella xylostella; 50 ppm)	insecticidal activity (death rate) (Mamestra brassicae; 1.25 ppm)	insecticidal activity (death rate) (Mamestra brassicae; 2.5 ppm)	insecticidal activity (death rate) (Mamestra brassicae; 50 ppm)
4-[(4-chlorophenyl)-(ethylaminoxalyl-hydrazono)-methyl]phenyl trifuoromethanesulfonate [Compound 1-5]	Neither death nor abnormality of the general conditions was recognized	100%	100%	100%	0	100	100	89%	100%	100%
COC(=O)C(=O)N/N=C(/c1ccc(Cl)cc1)c1ccc(OS(C)(=O)=O)cc1 [Comparative compound C, reference compound]			0%	100%						
CNC(=O)C(=O)NN=C(c1ccc(Cl)cc1)c1ccc(OS(=O)(=O)C(F)(F)F)cc1 [Compound 1-3, 4-[(4-chlorophenyl)-(methylaminoxalyl-hydrazono)-methyl]-phenyl trifluoromethanesulfonate]		50%	100%	100%	0	100	100	67%	89%	100%
CCCNC(=O)C(=O)NN=C(c1ccc(Cl)cc1)c1ccc(OS(=O)(=O)C(F)(F)F)cc1 [Compound 1-7]		70%	100%	100%				50%	70%	100%
C=CCNC(=O)C(=O)NN=C(c1ccc(Cl)cc1)c1ccc(OS(=O)(=O)C(F)(F)F)cc1 [Compound 1-27]		70%	100%	100%				80%	100%	100%
C#CCNC(=O)C(=O)NN=C(c1ccc(Cl)cc1)c1ccc(OS(=O)(=O)C(F)(F)F)cc1 [Compound 1-37]		60%	100%	100%				70%	100%	100%
O=C(NN=C(c1ccc(Cl)cc1)c1ccc(OS(=O)(=O)C(F)(F)F)cc1)C(=O)NC1CC1 [Compound 1-43]		90%	100%	100%				33%	67%	100%
CN(C)C(=O)C(=O)N/N=C(/c1ccc(Cl)cc1)c1ccc(OS(=O)(=O)C(F)(F)F)cc1 [Compound 1-133]		90%	100%	100%				44%	100%	100%
CNC(=O)C(=O)N(C)N=C(c1ccc(Cl)cc1)c1ccc(OS(=O)(=O)C(F)(F)F)cc1 [Compound 1-178]		30%	100%	100%						
CNC(=O)C(=O)NN=C(c1ccc(Br)cc1)c1ccc(OS(=O)(=O)C(F)(F)F)cc1 [Compound 1-515]		75%	100%	100%				60%	80%	100%
CCNC(=O)C(=O)NN=C(c1ccc(Br)cc1)c1ccc(OS(=O)(=O)C(F)(F)F)cc1 [Compound 1-517]		60%	100%	100%				100%	100%	100%
O=C(NN=C(c1ccc(Br)cc1)c1ccc(OS(=O)(=O)C(F)(F)F)cc1)C(=O)NC1CC1 [Compound 1-555]		40%	100%	100%						
CCNC(=O)C(=O)NN=C(c1ccc(Cl)cc1)c1ccc(CSC(F)(F)F)cc1 [Compound 2-6]		50%	100%	100%						
